Patent US20030186434A1, “Method of forming vertebrate pancreas in vitro” (priority 2002, published 2003)

Tests used:
[1] = test system: blastopore upper lip of early gastrula of a Xenopus; assay: Timing of retinoic acid treatment: preculture of blastopore upper lip before one hour treatment; format: cell-based; conditions: 10^−4 M, treated 1 hour, cultured 10 days
Method: Regarding the other tissues, an intestinal epithelium was formed aside from notochord and mesenchyme in those precultured for 0 and 5 hours. However, as to those treated with retinoic acid after preculture for more than 15 hours, the formation of intestinal epithelium was suppressed and the differentiation rate of epithelium, coelomic epithelium and pharyngeal epithelium increased.

[2] = test system: blastopore upper lip of early gastrula of a Xenopus; assay: Tissue differentiation of blastopore upper lip treated with retinoic acid for three hours, light microscopy; conditions: treated 3 hours, cultured 10 days
[3] = preculture 0 hours, 34 specimens
[4] = preculture 5 hours, 36 specimens
[5] = preculture 15 hours, 40 specimens
[6] = preculture 25 hours, 34 specimens

SMILES: CC1=C(/C=C/C(C)=C/C=C/C(C)=C/C(=O)O)C(C)(C)CCC1 [Retinoic acid, retinoic acid]
- Atypical epidermis differentiated, specimens (%) [1, 3]: 0 (0)
- Cartilage differentiated, specimens (%) [1, 3]: 0 (0)
- Cement gland differentiated, specimens (%) [1, 3]: 0 (0)
- Coelomic epithelium differentiated, specimens (%) [1, 3]: 0 (0)
- Ear vesicle differentiated, specimens (%) [1, 3]: 0 (0)
- Epidermis differentiated, specimens (%) [1, 3]: 11 (32)
- Eye or its fragments differentiated, specimens (%) [1, 3]: 0 (0)
- Gastric gland differentiated, specimens (%) [1, 3]: 0 (0)
- Hemocyte differentiated, specimens (%) [1, 3]: 0 (0)
- Intestinal epithelium differentiated, specimens (%) [1, 3]: 34 (100)
- Mesenchyme differentiated, specimens (%) [1, 3]: 23 (68)
- Muscle differentiated, specimens (%) [1, 3]: 1 (3)
- Neural tissue differentiated, specimens (%) [1, 3]: 0 (0)
- Notochord differentiated, specimens (%) [1, 3]: 33 (97)
- Pancreas differentiated, specimens (%) [1, 3]: 24 (71)
- Pharyngeal epithelium differentiated, specimens (%) [1, 3]: 25 (74)
- Pronephros differentiated, specimens (%) [1, 3]: 0 (0)
- Yolk-rich cell differentiated, specimens (%) [1, 3]: 32 (94)
- Atypical epidermis differentiated, specimens (%) [1, 4]: 0 (0)
- Cartilage differentiated, specimens (%) [1, 4]: 0 (0)
- Cement gland differentiated, specimens (%) [1, 4]: 0 (0)
- Coelomic epithelium differentiated, specimens (%) [1, 4]: 0 (0)
- Ear vesicle differentiated, specimens (%) [1, 4]: 0 (0)
- Epidermis differentiated, specimens (%) [1, 4]: 5 (14)
- Eye or its fragments differentiated, specimens (%) [1, 4]: 0 (0)
- Gastric gland differentiated, specimens (%) [1, 4]: 0 (0)
- Hemocyte differentiated, specimens (%) [1, 4]: 0 (0)
- Intestinal epithelium differentiated, specimens (%) [1, 4]: 33 (92)
- Mesenchyme differentiated, specimens (%) [1, 4]: 30 (83)
- Muscle differentiated, specimens (%) [1, 4]: 0 (0)
- Neural tissue differentiated, specimens (%) [1, 4]: 0 (0)
- Notochord differentiated, specimens (%) [1, 4]: 36 (100)
- Pancreas differentiated, specimens (%) [1, 4]: 19 (53)
- Pharyngeal epithelium differentiated, specimens (%) [1, 4]: 27 (75)
- Pronephros differentiated, specimens (%) [1, 4]: 0 (0)
- Yolk-rich cell differentiated, specimens (%) [1, 4]: 30 (83)
- Atypical epidermis differentiated, specimens (%) [1, 5]: 0 (0)
- Cartilage differentiated, specimens (%) [1, 5]: 0 (0)
- Cement gland differentiated, specimens (%) [1, 5]: 0 (0)
- Ear vesicle differentiated, specimens (%) [1, 5]: 0 (0)
- Epidermis differentiated, specimens (%) [1, 5]: 13 (33)
- Eye or its fragments differentiated, specimens (%) [1, 5]: 0 (0)
- Hemocyte differentiated, specimens (%) [1, 5]: 0 (0)
- Mesenchyme differentiated, specimens (%) [1, 5]: 40 (95)
- Muscle differentiated, specimens (%) [1, 5]: 0 (0)
- Neural tissue differentiated, specimens (%) [1, 5]: 0 (0)
- Pronephros differentiated, specimens (%) [1, 5]: 0 (0)
- Atypical epidermis differentiated, specimens (%) [1, 6]: 0 (0)
- Cartilage differentiated, specimens (%) [1, 6]: 0 (0)
- Cement gland differentiated, specimens (%) [1, 6]: 0 (0)
- Coelomic epithelium differentiated, specimens (%) [1, 6]: 16 (47)
- Ear vesicle differentiated, specimens (%) [1, 6]: 0 (0)
- Epidermis differentiated, specimens (%) [1, 6]: 28 (82)
- Eye or its fragments differentiated, specimens (%) [1, 6]: 0 (0)
- Gastric gland differentiated, specimens (%) [1, 6]: 0 (0)
- Hemocyte differentiated, specimens (%) [1, 6]: 0 (0)
- Intestinal epithelium differentiated, specimens (%) [1, 6]: 5 (15)
- Mesenchyme differentiated, specimens (%) [1, 6]: 34 (100)
- Muscle differentiated, specimens (%) [1, 6]: 1 (3)
- Neural tissue differentiated, specimens (%) [1, 6]: 0 (0)
- Notochord differentiated, specimens (%) [1, 6]: 33 (97)
- Pancreas differentiated, specimens (%) [1, 6]: 0 (0)
- Pharyngeal epithelium differentiated, specimens (%) [1, 6]: 34 (100)
- Pronephros differentiated, specimens (%) [1, 6]: 0 (0)
- Yolk-rich cell differentiated, specimens (%) [1, 6]: 20 (59)
- Atypical epidermis differentiated, specimens (%) ([2]; 10^−3 M, 12 specimens): 0 (0)
- Cartilage differentiated, specimens (%) ([2]; 10^−3 M, 12 specimens): 0 (0)
- Cement gland differentiated, specimens (%) ([2]; 10^−3 M, 12 specimens): 0 (0)
- Coelomic epithelium differentiated, specimens (%) ([2]; 10^−3 M, 12 specimens): 6 (50)
- Ear vesicle differentiated, specimens (%) ([2]; 10^−3 M, 12 specimens): 0 (0)
- Epidermis differentiated, specimens (%) ([2]; 10^−3 M, 12 specimens): 10 (83)
- Eye or its fragments differentiated, specimens (%) ([2]; 10^−3 M, 12 specimens): 0 (0)
- Gastric gland differentiated, specimens (%) ([2]; 10^−3 M, 12 specimens): 0 (0)
- Hemocyte differentiated, specimens (%) ([2]; 10^−3 M, 12 specimens): 0 (0)
- Intestinal epithelium differentiated, specimens (%) ([2]; 10^−3 M, 12 specimens): 12 (100)
- Mesenchyme differentiated, specimens (%) ([2]; 10^−3 M, 12 specimens): 12 (100)
- Muscle differentiated, specimens (%) ([2]; 10^−3 M, 12 specimens): 0 (0)
- Neural tissue differentiated, specimens (%) ([2]; 10^−3 M, 12 specimens): 0 (0)
- Notochord differentiated, specimens (%) ([2]; 10^−3 M, 12 specimens): 11 (92)
- Pancreas differentiated, specimens (%) ([2]; 10^−3 M, 12 specimens): 11 (92)
- Pharyngeal epithelium differentiated, specimens (%) ([2]; 10^−3 M, 12 specimens): 10 (83)
- Pronephros differentiated, specimens (%) ([2]; 10^−3 M, 12 specimens): 0 (0)
- Yolk-rich cell differentiated, specimens (%) ([2]; 10^−3 M, 12 specimens): 11 (92)
- Atypical epidermis differentiated, specimens (%) ([2]; 10^−4 M, 35 specimens): 0 (0)
- Cartilage differentiated, specimens (%) ([2]; 10^−4 M, 35 specimens): 0 (0)
- Cement gland differentiated, specimens (%) ([2]; 10^−4 M, 35 specimens): 0 (0)
